From patent US4647408A, “Carbapenem-type antibiotics” (Shionogi & Co., Ltd., priority 1983, dated 1987) come the findings set out here.

Converted amounts (≈) assume the structure as drawn.

The subject of one assay is Enterobacter cloacae 233. Nature of the assay: Antimicrobial activity, agar dilution method. It is filed as cell-based. Conditions: inoculum 10^6 cells/ml, sensitivity disc agar, 37° C. overnight, read-out: Minimum Inhibitory Concentration. As for the experimental part: (§1) (1) Antimicrobial Activity:
(§2) Test microorganism Concentration (μg/ml)
(§3) Determined by agar dilution method: Inoculum size 10^6 cells/ml,
(§4) Cultivation on a sensitivitydisc agar medium at 37° C. overnight.

Assay [1] has as its system Escherichia coli NIHJ JC-2. Kind of assay: Antimicrobial activity, agar dilution method. Format: cell-based. As to conditions: NIHJJC2, inoculum 10^6 cells/ml, sensitivity disc agar, 37° C. overnight, read-out: Minimum Inhibitory Concentration. As for the experimental part:
as §1, §2, §3, §4

Assay [2] concerns Klebsiella pneumoniae SRL-1. Nature of the assay: Antimicrobial activity, agar dilution method. It is filed as cell-based. As to conditions: SRL1, inoculum 10^6 cells/ml, sensitivity disc agar, 37° C. overnight, read-out: Minimum Inhibitory Concentration. As for the experimental part:
as §1, §2, §3, §4
Background: In agar dilution the substance is mixed into plates at graded concentrations.

The test system of a further assay is Klebsiella sp. 363(R). Kind of assay: Antimicrobial activity, agar dilution method. As to conditions: inoculum 10^6 cells/ml, sensitivity disc agar, 37° C. overnight, read-out: Minimum Inhibitory Concentration. It is filed as cell-based. As for the experimental part:
as §1, §2, §3, §4

The test system of another assay is Proteus mirabilis PR-4. Nature of the assay: Antimicrobial activity, agar dilution method. It is filed as cell-based. Conditions: PR4, inoculum 10^6 cells/ml, sensitivity disc agar, 37° C. overnight, read-out: Minimum Inhibitory Concentration. As for the experimental part: as §1, §2, §3, §4
The test system of assay [3] is Pseudomonas aeruginosa ATCC 25619. Kind of assay: Antimicrobial activity, agar dilution method. It is filed as cell-based. Conditions: ATCC25619, inoculum 10^6 cells/ml, sensitivity disc agar, 37° C. overnight, read-out: Minimum Inhibitory Concentration. As for the experimental part: as §1, §2, §3, §4
The subject of assay [4] is Staphylococcus aureus 209P JC-1. Kind of assay: Antimicrobial activity, agar dilution method. As to conditions: inoculum 10^6 cells/ml, sensitivity disc agar, 37° C. overnight, read-out: Minimum Inhibitory Concentration. It is filed as cell-based. As for the experimental part:
as §1, §2, §3, §4

Assay [5] concerns Streptococcus pneumoniae I. Nature of the assay: Antimicrobial activity, agar dilution method. It is filed as cell-based. Conditions: inoculum 10^6 cells/ml, sensitivity disc agar, 37° C. overnight, read-out: Minimum Inhibitory Concentration. As for the experimental part:
as §1, §2, §3, §4

In assay [6] the target is T1, β-lactamase (cephalosporinase type) of Enterobacter cloacae 92 (Enterobacter cloacae, UniProt P05364).
T1 construct: supernatant of sonicated, washed cells of the producing strain (crude cell-free extract)
Nature of the assay: β-lactamase inhibitory activity, inhibition of hydrolysis of the substrate. It is filed as biochemical. Conditions: β-lactamase of Enterobacter cloacae 92, cephalosporinase type; pH 7.0, 10 min preincubation, read after 20 min. An excerpt: (§5) (2) Test on the β-lactamase inhibitory activity:
(§6) The β-lactamase inhibitory activity is expressed as a minimum concentration (μg/ml) of the test compound which is required to inhibit the hydrolysis of the substrate by β-lactamase. The supernatant, which has been obtained by means of breaking the washed cells of the β-lactamase-producing microorganisms in a buffer with ultrasonic waves and then centrifuging the consequent cell-free extract, is employed as a standard β-lactamase.
(§7) A test compound is successively diluted with a buffer (pH 7.0) by a two-fold dilution method, the standard β-lactamase in added to each of the diluted solutions, then the mixture is allowed to stand for 10 minutes, and an indicator is added therein. The minimum inhibitory concentration at which no color is developed after observation for 20 minutes, is determined.
*^1 Producing cephalosporinasetype lactamase

The test system of assay [7] is β-lactamase (penicillinase type) of Klebsiella sp. 363. The assay is described as above. It is filed as biochemical. As to conditions: β-lactamase of Klebsiella sp. 363, penicillinase type; pH 7.0, 10 min preincubation, read after 20 min.
From the text: as §5, §6, §7
*^2 Producing penicillinasetype lactamase

In assay [8] the test system is Gram-positive and Gram-negative microorganisms. Kind of assay: Antimicrobial activity (general statement). As to conditions: statement in words. Format: cell-based. An excerpt:
(§8) Results of the tests on the antimicrobial activities and β-lactamase inhibitory activities are summarized as follows.

Another assay has as its system β-lactamase. Kind of assay: β-lactamase inhibitory activity (general statement). Format: biochemical. Conditions: statement in words.
From the text: as §8, §6, §7

T1 sequence (P05364 21-381): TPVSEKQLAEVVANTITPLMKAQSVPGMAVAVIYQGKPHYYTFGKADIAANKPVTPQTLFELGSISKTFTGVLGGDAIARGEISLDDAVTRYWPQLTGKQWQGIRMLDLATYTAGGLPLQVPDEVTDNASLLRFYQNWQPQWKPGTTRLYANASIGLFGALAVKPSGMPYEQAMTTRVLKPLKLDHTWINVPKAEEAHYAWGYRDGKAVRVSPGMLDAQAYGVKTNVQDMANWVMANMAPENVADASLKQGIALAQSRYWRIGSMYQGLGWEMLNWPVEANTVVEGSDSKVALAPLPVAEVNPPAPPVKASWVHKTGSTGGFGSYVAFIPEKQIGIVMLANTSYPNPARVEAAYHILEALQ

As for `C[C@H](OS(=O)(=O)O)[C@@H]1C(=O)N2C(C(=O)O)=C(S(=O)O)C[C@H]12` [PA-41746-A2], the MIC is 6.25 µg/mL (≈ 18.3 µM) in the assay with Enterobacter cloacae 233; 1.56 µg/mL (≈ 4.57 µM) in assay [1]; 1.56 µg/mL (≈ 4.57 µM) in assay [2]; 1.56 µg/mL (≈ 4.57 µM) in the assay on Klebsiella sp. 363(R); 3.13 µg/mL (≈ 9.17 µM) in the assay on Proteus mirabilis PR-4; above 100 µg/mL in assay [3]. The MIC is 12.5 µg/mL (≈ 36.6 µM) in assay [4] and 1.56 µg/mL (≈ 4.57 µM) in [5]. Further, the “Minimum Inhibitory Concentration (inhibition of substrate hydrolysis by β-lactamase)” value (shortened to “Minimum Inhibitory Concentration”) in [6] was found to be 0.008 µg/mL; in [7], 1.0 µg/mL. Also, the antimicrobial activities entry in assay [8] is “antimicrobial activities against Gram-positive and Gram-negative microorganisms”. The β-lactamase inhibitory activities entry with β-lactamase is given as “excellent β-lactamase inhibitory activities”.

As for `C[C@H](OS(=O)(=O)O)[C@@H]1C(=O)N2C(C(=O)O)=C([S@+]([O-])CCO)C[C@H]12` [PA-41746-E], the “Minimum Inhibitory Concentration” value in [6] was 0.016 µg/mL; in assay [7] it was 0.008 µg/mL. For the same compound, the antimicrobial activities result in assay [8] was “antimicrobial activities against Gram-positive and Gram-negative microorganisms”. Besides, in the assay with β-lactamase, the β-lactamase inhibitory activities result is on record as “excellent β-lactamase inhibitory activities”.

With `CC(=O)NCC[S@@+]([O-])C1=C(C(=O)O)N2C(=O)[C@@H]([C@H](C)OS(=O)(=O)O)[C@H]2C1` [PA-41746-F], the “Minimum Inhibitory Concentration” value in [6] and in assay [7] was 0.002 µg/mL throughout. Besides, the antimicrobial activities result in assay [8] was “antimicrobial activities against Gram-positive and Gram-negative microorganisms”. Further, the β-lactamase inhibitory activities entry in the assay on β-lactamase is “excellent β-lactamase inhibitory activities”.
